Values after ≈ are worked out from the molar mass of the structure shown.
Legend:
P9 = test: MIC determination (bacteria), strain P9; assay type: cell-based, S. pneumoniae; conditions: Table 2, 2-fold broth dilution; for MIC: Streptococcus pneumoniae
Method: (§1) MIC determination (bacteria); MICs were determined based on Clinical and Laboratory Standards Institute (CLSI) methodology (Methods for dilution antimicrobial susceptibility tests for bacteria that grow aerobically; Approved Standard—seventh edition. 2006, M7-A7, CLSI, Wayne Pa.) by a 2-fold broth dilution technique in Mueller Hinton (pH7.4 Biorad). For S. pneumoniae, the medium was supplemented with 2.5% laked horse blood. For H. influenzae, the medium was haemophilus test medium (H.T.M.). Overnight cultures were diluted to obtain the final inoculum of 10^5 cfu/well. Incubation was 37° C. overnight in ambient air. The MIC was defined as the lowest concentration which inhibited all visual growth and expressed in μg/ml. For each bacterial species, all of the molecules were tested in the same experiment in order to give a head-to-head comparison.

P1 = test: MIC determination (bacteria), strain P1; assay type: cell-based, S. pneumoniae; conditions: Table 2, 2-fold broth dilution; for MIC: Streptococcus pneumoniae
Method: as §1

S4 = test: MIC determination (bacteria), strain S4; assay type: cell-based, S. aureus; conditions: Table 2, 2-fold broth dilution; for MIC: Staphylococcus aureus
Method: as §1

H4 = test: MIC determination (bacteria), strain H4; assay type: cell-based, H. influenzae; conditions: Table 2 and its footnote f, haemophilus test medium; for MIC: Haemophilus influenzae
Method: as §1

S1 = test: MIC determination (bacteria), strain S1; assay type: cell-based, S. aureus; conditions: Table 2, 2-fold broth dilution; for MIC: Staphylococcus aureus
Method: as §1

E1 = test: MIC determination (bacteria), strain E1; assay type: cell-based, enterococcus; conditions: Table 2, 2-fold broth dilution; for MIC: Enterococcus
Method: as §1

S26 = test: MIC determination (bacteria), strain S26; assay type: cell-based, S. aureus; conditions: Table 2, 2-fold broth dilution; for MIC: Staphylococcus aureus
Method: as §1

[1] = test system: S2 (S. aureus 2, MRSA in vivo); test: MIC determination (bacteria), strain S2; assay type: cell-based; conditions: Table 2, 2-fold broth dilution; for MIC: Staphylococcus aureus, MRSA
Method: as §1

E2 = test: MIC determination (bacteria), strain E2; assay type: cell-based, enterococcus; conditions: Table 2, 2-fold broth dilution; for MIC: Enterococcus
Method: as §1

H3 = test: MIC determination (bacteria), strain H3; assay type: cell-based, H. influenzae; conditions: Table 2, haemophilus test medium; for MIC: Haemophilus influenzae
Method: as §1

P9B = test: MIC determination (bacteria), strain P9B; assay type: cell-based, S. pneumoniae; conditions: Table 2, 2-fold broth dilution; for MIC: Streptococcus pneumoniae
Method: as §1

CCCC(=O)N1CC(=O)C(=C(O)CC23CC4CC(CC(C4)C2)C3)C1=O [27j]
MIC P9 (P9): 4 µg/mL (≈ 11.6 µM)
MIC P1 (P1): 4 µg/mL (≈ 11.6 µM)
MIC S4 (S4): 16 µg/mL (≈ 46.3 µM)
MIC H4 (H4): 4 µg/mL (≈ 11.6 µM)
MIC S1 (S1): 16 µg/mL (≈ 46.3 µM)
MIC E1 (E1): 8 µg/mL (≈ 23.2 µM)
MIC S26 (S26): 16 µg/mL (≈ 46.3 µM)
MIC S2 [1]: 16 µg/mL (≈ 46.3 µM)
MIC E2 (E2): 8 µg/mL (≈ 23.2 µM)
MIC H3 (H3): 16 µg/mL (≈ 46.3 µM)
MIC P9B (P9B): 4 µg/mL (≈ 11.6 µM)

CCCCCCC(=O)N1CC(=O)/C(=C(/O)CO[C@H]2C[C@@H](C)CC[C@@H]2C(C)C)C1=O [27n]
MIC (P9): 0.5 µg/mL (≈ 1.23 µM)
MIC (P1): 0.5 µg/mL (≈ 1.23 µM)
MIC (S4): > 64 µg/mL
MIC (H4): 2 µg/mL (≈ 4.91 µM)
MIC (S1): > 64 µg/mL
MIC (E1): 8 µg/mL (≈ 19.6 µM)
MIC (S26): > 64 µg/mL
MIC [1]: > 64 µg/mL
MIC (E2): 2 µg/mL (≈ 4.91 µM)
MIC (H3): > 64 µg/mL
MIC (P9B): 8 µg/mL (≈ 19.6 µM)

CCCC(=O)N1CC(=O)C(=C(O)CCCCC2CCCCC2)C1=O [27o]
MIC P9 (P9): 0.5 µg/mL (≈ 1.49 µM)
MIC P1 (P1): 0.5 µg/mL (≈ 1.49 µM)
MIC S4 (S4): 16 µg/mL (≈ 47.7 µM)
MIC H4 (H4): 2 µg/mL (≈ 5.96 µM)
MIC S1 (S1): 4 µg/mL (≈ 11.9 µM)
MIC E1 (E1): 4 µg/mL (≈ 11.9 µM)
MIC S26 (S26): 8 µg/mL (≈ 23.8 µM)
MIC S2 [1]: 4 µg/mL (≈ 11.9 µM)
MIC E2 (E2): 2 µg/mL (≈ 5.96 µM)
MIC H3 (H3): 8 µg/mL (≈ 23.8 µM)
MIC P9B (P9B): 4 µg/mL (≈ 11.9 µM)

Cc1ccccc1C(=O)N1CC(=O)C(=C(O)CCCCC2CCCCC2)C1=O [27s]
MIC P9 (P9): 2 µg/mL (≈ 5.22 µM)
MIC P1 (P1): 2 µg/mL (≈ 5.22 µM)
MIC S4 (S4): 16 µg/mL (≈ 41.7 µM)
MIC H4 (H4): 4 µg/mL (≈ 10.4 µM)
MIC S1 (S1): 16 µg/mL (≈ 41.7 µM)
MIC E1 (E1): 8 µg/mL (≈ 20.9 µM)
MIC S26 (S26): 16 µg/mL (≈ 41.7 µM)
MIC S2 [1]: 16 µg/mL (≈ 41.7 µM)
MIC E2 (E2): 8 µg/mL (≈ 20.9 µM)
MIC H3 (H3): 32 µg/mL (≈ 83.4 µM)
MIC P9B (P9B): 16 µg/mL (≈ 41.7 µM)

CCCCCCC(=O)N1CC(=O)C(=C(O)CCCCc2ccccc2)C1=O [28b]
MIC P9 (P9): 0.25 µg/mL (≈ 0.673 µM)
MIC P1 (P1): 0.5 µg/mL (≈ 1.35 µM)
MIC S4 (S4): 2 µg/mL (≈ 5.38 µM)
MIC H4 (H4): 2 µg/mL (≈ 5.38 µM)
MIC S1 (S1): 2 µg/mL (≈ 5.38 µM)
MIC E1 (E1): 2 µg/mL (≈ 5.38 µM)
MIC S26 (S26): 4 µg/mL (≈ 10.8 µM)
MIC S2 [1]: 2 µg/mL (≈ 5.38 µM)
MIC E2 (E2): 1 µg/mL (≈ 2.69 µM)
MIC H3 (H3): 8 µg/mL (≈ 21.5 µM)
MIC P9B (P9B): 2 µg/mL (≈ 5.38 µM)

CCCCCCC(=O)N1CC(=O)C(=C(O)CCc2ccc(SC)cc2)C1=O [28d]
MIC P9 (P9): 0.5 µg/mL (≈ 1.28 µM)
MIC P1 (P1): 0.5 µg/mL (≈ 1.28 µM)
MIC S4 (S4): 16 µg/mL (≈ 41.1 µM)
MIC H4 (H4): 1 µg/mL (≈ 2.57 µM)
MIC S1 (S1): 4 µg/mL (≈ 10.3 µM)
MIC E1 (E1): 1 µg/mL (≈ 2.57 µM)
MIC S26 (S26): 32 µg/mL (≈ 82.2 µM)
MIC S2 [1]: 8 µg/mL (≈ 20.5 µM)
MIC E2 (E2): 2 µg/mL (≈ 5.13 µM)
MIC H3 (H3): 4 µg/mL (≈ 10.3 µM)
MIC P9B (P9B): 4 µg/mL (≈ 10.3 µM)

CSCCC1C(=O)C(=C(O)CC23CC4CC(CC(C4)C2)C3)C(=O)N1C(C)=O (stereo not shown) [31d]
MIC P9 (P9): 8 µg/mL (≈ 20.4 µM)
MIC P1 (P1): 8 µg/mL (≈ 20.4 µM)
MIC S4 (S4): 16 µg/mL (≈ 40.9 µM)
MIC H4 (H4): 4 µg/mL (≈ 10.2 µM)
MIC S1 (S1): 16 µg/mL (≈ 40.9 µM)
MIC E1 (E1): 16 µg/mL (≈ 40.9 µM)
MIC S26 (S26): 32 µg/mL (≈ 81.7 µM)
MIC S2 [1]: 32 µg/mL (≈ 81.7 µM)
MIC E2 (E2): 16 µg/mL (≈ 40.9 µM)
MIC H3 (H3): 32 µg/mL (≈ 81.7 µM)
MIC P9B (P9B): 8 µg/mL (≈ 20.4 µM)

CSCCC1C(=O)/C(=C(/O)CC(C)(C)CC(=O)OCCC23CC4CC(CC(C4)C2)C3)C(=O)N1C(C)=O (stereo not shown) [31i]
MIC (P9): 1 µg/mL (≈ 1.92 µM)
MIC (P1): 2 µg/mL (≈ 3.85 µM)
MIC (S4): 16 µg/mL (≈ 30.8 µM)
MIC (H4): 8 µg/mL (≈ 15.4 µM)
MIC (S1): 8 µg/mL (≈ 15.4 µM)
MIC (E1): 2 µg/mL (≈ 3.85 µM)
MIC (S26): > 64 µg/mL
MIC [1]: 8 µg/mL (≈ 15.4 µM)
MIC (E2): 1 µg/mL (≈ 1.92 µM)
MIC (H3): > 64 µg/mL
MIC (P9B): 4 µg/mL (≈ 7.7 µM)

From US9765069B2, “Antimicrobial compounds” (OXFORD UNIVERSITY INNOVATION LIMITED, priority 2012, dated 2017)
